# Assay results taken from patent US20230279025A1, “KRAS G12D INHIBITORS” (Mirati Therapeutics, Inc., priority 2020, published 2023).
# pIC50: −log10 of the molar value. Structures can show the parent of a compound that is named as a salt.
# Biological target: KRas G12D (Homo sapiens (Human), UniProt P01116, G12D)
# Assay: KRas G12D Binding Assay (TR-FRET displacement of Cy5 labelled tracer)
# Details: GDP-loaded KRAS G12D (amino acids 1:169), 60 minute incubation at 22° C.
# Experimental: After a 60 minute incubation at 22° C., the reaction was measured using a PerkinElmer EnVision multimode plate reader via TR-FRET dual wavelength detection, and the percent of control (POC) calculated using a ratiometric emission factor. […] The POC values were fit to a 4-parameter logistic curve and the IC50 value was determined as the concentration where the curve crosses 50 POC.
# ND stands for “not determined.”
# Sequence of KRas G12D (P01116 other isoform, or with tags, fused parts or gaps G12D): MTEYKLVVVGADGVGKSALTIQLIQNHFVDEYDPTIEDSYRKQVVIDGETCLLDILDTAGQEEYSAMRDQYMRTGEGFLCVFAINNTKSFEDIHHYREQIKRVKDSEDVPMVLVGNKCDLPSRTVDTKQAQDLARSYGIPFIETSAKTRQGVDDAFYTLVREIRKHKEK
row,SMILES,pIC50
1,"Cc1cccc(-c2ncc3c(N4C[C@H]5CC[C@@H](C4)N5)nc(OCC45CCCN4CCC5)nc3c2F)c1Cl [Example 276, 4-((1R,5S)-3,8-diazabicyclo[3.2.1]octan-3-yl)-7-(2-chloro-3-methylphenyl)-8-fluoro-2-((hexahydro-1H-pyrrolizin-7a-yl)methoxy)pyrido[4,3-d]pyrimidine]",7.79
2,"Fc1c(-c2ccccc2C(F)(F)F)ncc2c(N3C[C@H]4CC[C@@H](C3)N4)nc(OCC34CCCN3CCC4)nc12 [Example 370, 4-((1R,5S)-3,8-diazabicyclo[3.2.1]octan-3-yl)-8-fluoro-2-((tetrahydro-1H-pyrrolizin-7a(5H)-yl)methoxy)-7-(2-(trifluoromethyl)phenyl)pyrido[4,3-d]pyrimidine]",7.06
3,"O=C(O[C@@H]1CN2CCC[C@]2(COc2nc(N3C[C@H]4CC[C@@H](C3)N4)c3cnc(-c4cccc5cccc(Cl)c45)c(F)c3n2)C1)N1CCOCC1 [Example 436, (2S,7aR)-7a-(((4-((1R,5S)-3,8-diazabicyclo[3.2.1]octan-3-yl)-7-(8-chloronaphthalen-1-yl)-8-fluoropyrido[4,3-d]pyrimidin-2-yl)oxy)methyl)hexahydro-1H-pyrrolizin-2-yl morpholine-4-carboxylate]",7.32
4,"OCC12CCCN1CC(Oc1nc(N3C[C@H]4CC[C@@H](C3)N4)c3cnc(-c4cccc5cccc(Cl)c45)c(F)c3n1)C2 (stereo partly drawn) [Example 222, (2-((4-((1R,5S)-3,8-diazabicyclo[3.2.1]octan-3-yl)-7-(8-chloronaphthalen-1-yl)-8-fluoropyrido[4,3-d]pyrimidin-2-yl)oxy)tetrahydro-1H-pyrrolizin-7a(5H)-yl)methanol bis-TFA salt]",5.95
5,"OCc1cccc2cccc(-c3ncc4c(N5C[C@H]6CC[C@@H](C5)N6)nc(OCC56CCCN5CCC6)nc4c3F)c12 [Example 238, (8-(4-((1R,5S)-3,8-diazabicyclo[3.2.1]octan-3-yl)-8-fluoro-2-((tetrahydro-1H-pyrrolizin-7a(5H)-yl)methoxy)pyrido[4,3-d]pyrimidin-7-yl)naphthalen-1-yl)methanol]",7.79
6,"Fc1c(-c2cccc3cccc(Cl)c23)ncc2c(N3CC4CCC(C3)N4)nc(OCC34CCCN3C[C@H](F)C4)nc12 (stereo partly drawn) [Example 226, 4-((1R,5S)-3,8-diazabicyclo[3.2.1]octan-3-yl)-7-(8-chloronaphthalen-1-yl)-8-fluoro-2-((2-fluorotetrahydro-1H-pyrrolizin-7a(5H)-yl)methoxy)pyrido[4,3-d]pyrimidine bis-hydrochloride]",7.59
7,"Cn1cnnc1CCOc1nc(N2C[C@H]3CC[C@@H](C2)N3)c2cnc(-c3cccc4cccc(Cl)c34)c(F)c2n1 [Example 154, 4-((1R,5S)-3,8-diazabicyclo[3.2.1]octan-3-yl)-7-(8-chloronaphthalen-1-yl)-8-fluoro-2-(2-(4-methyl-4H-1,2,4-triazol-3-yl)ethoxy)pyrido[4,3-d]pyrimidine]",5.18
8,"Fc1c(-c2cccc3cccc(OC(F)F)c23)ncc2c(N3C[C@H]4CC[C@@H](C3)N4)nc(OCC34CCCN3CCC4)nc12 [Example 346, 4-((1R,5S)-3,8-diazabicyclo[3.2.1]octan-3-yl)-7-(8-(difluoromethoxy)naphthalen-1-yl)-8-fluoro-2-((tetrahydro-1H-pyrrolizin-7a(5H)-yl)methoxy)pyrido[4,3-d]pyrimidine]",7.98
9,"FCCCc1cccc2cccc(-c3ncc4c(N5C[C@H]6CC[C@@H](C5)N6)nc(OCC56CCCN5CCC6)nc4c3F)c12 [Example 255, 4-((1R,5S)-3,8-diazabicyclo[3.2.1]octan-3-yl)-8-fluoro-7-(8-(3-fluoropropyl)naphthalen-1-yl)-2-((hexahydro-1H-pyrrolizin-7a-yl)methoxy)pyrido[4,3-d]pyrimidine]",8.06
10,"O[C@H]1CN2CCC[C@]2(COc2nc(N3CC4CCC(C3)N4)c3cnc(-c4cccc5cccc(Cl)c45)c(F)c3n2)C1 (stereo in doubt) [Example 224, 7a-(((4-((1R,5S)-3,8-diazabicyclo[3.2.1]octan-3-yl)-7-(8-chloronaphthalen-1-yl)-8-fluoropyrido[4,3-d]pyrimidin-2-yl)oxy)methyl)hexahydro-1H-pyrrolizin-2-ol bis-hydrochloride]",7.57
11,"Fc1c(-c2ccccc2C(F)F)ncc2c(N3C[C@H]4CC[C@@H](C3)N4)nc(OCC34CCCN3CCC4)nc12 [Example 293, 4-((1R,5S)-3,8-diazabicyclo[3.2.1]octan-3-yl)-7-(2-(difluoromethyl)phenyl)-8-fluoro-2-((hexahydro-1H-pyrrolizin-7a-yl)methoxy)pyrido[4,3-d]pyrimidine]",6.16
12,"CC(C)Oc1ccccc1-c1ncc2c(N3CC4CCC(C3)N4)nc(OC[C@@]34CCCN3C[C@H](F)C4)nc2c1F (stereo in doubt) [Example 416, 4-((1R,5S)-3,8-diazabicyclo[3.2.1]octan-3-yl)-8-fluoro-2-((2-fluorotetrahydro-1H-pyrrolizin-7a(5H)-yl)methoxy)-7-(2-isopropoxyphenyl)pyrido[4,3-d]pyrimidine]",5.71
13,"CO[C@H]1C[C@@H](COc2nc(N3C[C@H]4CC[C@@H](C3)N4)c3cnc(-c4cccc5cccc(Cl)c45)c(F)c3n2)N(C)C1 [Example 149, 4-((1R,5S)-3,8-diazabicyclo[3.2.1]octan-3-yl)-7-(8-chloronaphthalen-1-yl)-8-fluoro-2-(((2S,4S)-4-methoxy-1-methylpyrrolidin-2-yl)methoxy)pyrido[4,3-d]pyrimidine]",6.06
14,"CC(Oc1nc(N2C[C@H]3CC[C@@H](C2)N3)c2cnc(-c3cccc4cccc(F)c34)c(F)c2n1)C12CCCN1CCC2 (stereo partly drawn) [Example 450, 4-((1R,5S)-3,8-diazabicyclo[3.2.1]octan-3-yl)-8-fluoro-7-(8-fluoronaphthalen-1-yl)-2-(1-(hexahydro-1H-pyrrolizin-7a-yl)ethoxy)pyrido[4,3-d]pyrimidine]",7.43
15,C#Cc1cccc2cc(O)cc(-c3ncc4c(N5C[C@H]6CC[C@@H](C5)N6)nc(OC[C@@]56CCCN5C[C@H](F)C6)nc4c3F)c12 [Example 243],9.40
16,"Nc1ccc(CCOc2nc(N3C[C@H]4CC[C@@H](C3)N4)c3cnc(-c4cccc5cccc(Cl)c45)c(F)c3n2)cn1 [Example 141, 5-(2-((4-((1R,5S)-3,8-diazabicyclo[3.2.1]octan-3-yl)-7-(8-chloronaphthalen-1-yl)-8-fluoropyrido[4,3-d]pyrimidin-2-yl)oxy)ethyl)pyridin-2-amine]",6.05
17,"CN1CCC[C@H]1COc1nc(N2C[C@H]3CC[C@@H](C2)N3)c2cnc(-c3cc(O)cc4cccc(Cl)c34)c(F)c2n1 [Example 63, 4-(4-((1R,5S)-3,8-diazabicyclo[3.2.1]octan-3-yl)-8-fluoro-2-(((S)-1-methylpyrrolidin-2-yl)methoxy)pyrido[4,3-d]pyrimidin-7-yl)-5-chloronaphthalen-2-ol]",9.40
18,"C#Cc1c(F)ccc2cccc(-c3ncc4c(N5C[C@H]6CC[C@@H](C5)N6)nc(OC[C@]56CCCN5[C@@H](COC(=O)N(C)C)CC6)nc4c3F)c12 [Example 439, ((3R,7aR)-7a-(((4-((1R,5S)-3,8-diazabicyclo[3.2.1]octan-3-yl)-7-(8-ethynyl-7-fluoronaphthalen-1-yl)-8-fluoropyrido[4,3-d]pyrimidin-2-yl)oxy)methyl)hexahydro-1H-pyrrolizin-3-yl)methyl dimethylcarbamate]",9.40
19,"CC(C)(N)COc1nc(N2CC3CCC(C2)N3)c2cnc(-c3cccc4cccc(Cl)c34)c(F)c2n1 [Example 387, bis(2,2,2-trifluoroacetate)]",6.27
20,"Cc1ccc(O)cc1-c1ncc2c(N3C[C@H]4CC[C@@H](C3)N4)nc(OCC34CCCN3CCC4)nc2c1F [Example 256, 3-(4-((1R,5S)-3,8-diazabicyclo[3.2.1]octan-3-yl)-8-fluoro-2-((hexahydro-1H-pyrrolizin-7a-yl)methoxy)pyrido[4,3-d]pyrimidin-7-yl)-4-methylphenol]",7.88
21,"O[C@@H]1C[C@@H]2CN(c3nc(OCCC(F)(F)F)nc4c(F)c(-c5cccc6cccc(Cl)c56)ncc34)C[C@H]1N2 [Example 155, (1R,5R,6R)-3-(7-(8-chloronaphthalen-1-yl)-8-fluoro-2-(3,3,3-trifluoropropoxy)pyrido[4,3-d]pyrimidin-4-yl)-3,8-diazabicyclo[3.2.1]octan-6-ol]",5.47
22,"COCc1cccc2cccc(-c3ncc4c(N5C[C@H]6CC[C@@H](C5)N6)nc(OC[C@@]56CCCN5C[C@H](F)C6)nc4c3F)c12 [Example 423, 4-((1R,5S)-3,8-diazabicyclo[3.2.1]octan-3-yl)-8-fluoro-2-(((2R,7aS)-2-fluorohexahydro-1H-pyrrolizin-7a-yl)methoxy)-7-(8-(methoxymethyl)naphthalen-1-yl)pyrido[4,3-d]pyrimidine]",6.62
23,"Oc1cc(-c2ncc3c(N4CC5CCC(C4)N5)nc(OCC45CCCCN4CCC5)nc3c2F)c2ccccc2c1 (stereo not shown) [Example 463, 4-(4-(3,8-diazabicyclo[3.2.1]octan-3-yl)-8-fluoro-2-((octahydroindolizin-8a-yl)methoxy)pyrido[4,3-d]pyrimidin-7-yl)naphthalen-2-ol]",10.92
24,"Fc1ccccc1-c1ncc2c(N3C[C@H]4CC[C@@H](C3)N4)nc(OCC34CCCN3CCC4)nc2c1F [Example 264, 4-((1R,5S)-3,8-diazabicyclo[3.2.1]octan-3-yl)-8-fluoro-7-(2-fluorophenyl)-2-((hexahydro-1H-pyrrolizin-7a-yl)methoxy)pyrido[4,3-d]pyrimidine]",5.33
25,"Cc1ccc2c(-c3ncc4c(N5C[C@H]6CC[C@@H](C5)N6)nc(OC[C@@H]5CCCN5C)nc4c3F)cccc2c1 [Example 207, 4-((1R,5S)-3,8-diazabicyclo[3.2.1]octan-3-yl)-8-fluoro-7-(6-methylnaphthalen-1-yl)-2-(((S)-1-methylpyrrolidin-2-yl)methoxy)pyrido[4,3-d]pyrimidine]",5.31
